Ends that are not written are not given here. Ahx = NCCCCCC(=O)O

What is called Ki is a measure of affinity in units of concentration, obtained from inhibition or displacement. One may read the Kd as the concentration at which binding is half-saturated.

For experiment [1], the target named is T1, CALP (CAL PDZ domain) (Homo sapiens, UniProt Q9HD26). The experiment in a line: FP competition. The class given is binding. The settings on record: reporter F*-iCAL36, PDZ ~[…] Kd, triplicate experiments.
In a further experiment the target is T2, N1P1 (NHERF1 PDZ1) (Homo sapiens, UniProt O14745).
T2 sequence (O14745 14-94 limits assumed): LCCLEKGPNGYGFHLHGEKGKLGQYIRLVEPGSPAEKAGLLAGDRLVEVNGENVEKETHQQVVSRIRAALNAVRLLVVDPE
The experiment in a line: FP displacement binding to NHERF1 PDZ1.

For the next experiment, the target named is T3, N1P2 (NHERF1 PDZ2) (Homo sapiens, UniProt O14745).
T3 sequence (O14745 154-234 limits assumed): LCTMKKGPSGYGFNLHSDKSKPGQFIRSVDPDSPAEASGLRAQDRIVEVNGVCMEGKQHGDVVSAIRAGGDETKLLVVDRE
Briefly: FP displacement binding to NHERF1 PDZ2.

The target of the next experiment is N2P1 (NHERF2 PDZ1) (Homo sapiens, UniProt Q15599). The experiment in a line: FP displacement binding to NHERF2 PDZ1.
In the next experiment the target is N2P2 (NHERF2 PDZ2) (Homo sapiens, UniProt Q15599). Briefly: FP displacement binding to NHERF2 PDZ2.
The next experiment addresses CFTR (Homo sapiens). The experiment in a line: fluorescence polarization competition. The settings on record: cited from earlier work. A general note: Fluorescence polarisation rises when a labelled molecule tumbles more slowly, as on binding a larger partner.
A further experiment addresses iCAL36L. Briefly: fluorescence polarization competition. The note with it: cited from earlier work.
In the next experiment the target is iCAL36. The experiment in a line: fluorescence polarization competition. The note with it: cited from earlier work.
Experiment [2] concerns the target T1, CALP (CAL PDZ domain). The settings on record: K*-designed hexamer; ref Roberts et al., 2012; cited from earlier work.
The next experiment addresses T4, iCAL36QDTRL.
T4 chain: ANSRWQDTRL
The experiment in a line: fluorescence polarization competition.

A further experiment addresses T5, iCAL36TRL.
T5 chain: ANSRWPTTRL
The experiment in a line: fluorescence polarization competition.

Another experiment deals with T6, iCAL36Q-4.
T6 chain: ANSRWQTSII
Briefly: fluorescence polarization competition.

Another experiment has as its target T7, F*-CFTR6 (Homo sapiens).
T7 chain: {Fluorescein-Ahx}-VQDTRL
The experiment in a line: fluorescence polarization.

The target in the next experiment is T8, iCAL36VQD-3.
T8 chain: ANSRVQDSII
The experiment in a line: fluorescence polarization competition.

Consider ANSRVQDSII [iCAL36VQD^-3], for which the Ki on CALP (CAL PDZ domain) [1], on N1P1 (NHERF1 PDZ1), at N1P2 (NHERF1 PDZ2) and at N2P1 (NHERF2 PDZ1) was over 1000 µM in each case.
Regarding ANSRWQDTRL [iCAL36QDTRL], the Ki was 1.5 ± 0.2 µM at N1P1 (NHERF1 PDZ1), 6.7 ± 2.4 µM on N1P2 (NHERF1 PDZ2), 3.1 ± 1.4 µM at N2P1 (NHERF2 PDZ1) and 1100 ± 600 nM at N2P2 (NHERF2 PDZ2).
For `CC[C@H](C)[C@H](NC(=O)[C@@H](NC(=O)[C@H](CO)NC(=O)[C@@H](NC(=O)[C@H](CCC(N)=O)NC(=O)[C@H](Cc1c[nH]c2ccccc12)NC(=O)[C@H](CCCNC(=N)N)NC(=O)[C@H](CO)NC(=O)[C@H](CC(N)=O)NC(=O)[C@H](C)N)[C@@H](C)O)[C@@H](C)CC)C(=O)O` [iCAL36Q^-4], the Ki on N1P1 (NHERF1 PDZ1) was 280 ± 100 µM; at N1P2 (NHERF1 PDZ2), over 1000 µM; on N2P1 (NHERF2 PDZ1), 300 ± 100 µM.
As for ANSRWPTTRL [iCAL36TRL], the values for the Ki at N1P1 (NHERF1 PDZ1), on N2P1 (NHERF2 PDZ1) and on N2P2 (NHERF2 PDZ2) were 8 ± 1.4 µM, 8.7 ± 3.1 µM and 16500 ± 3900 nM, respectively.
For N1P2 PDZ2 (from UniProt O14745), the Ki in the experiment with CFTR (Homo sapiens) was 1800 nM; in the experiment with iCAL36L it was over 1 mM; in the experiment with iCAL36, over 1 mM.
As for `CC(C)C[C@H](NC(=O)[C@H](CCCNC(=N)N)NC(=O)[C@@H](NC(=O)[C@@H](NC(=O)[C@H](CCC(N)=O)NC(=O)[C@@H](NC(=O)[C@H](CCC(=O)O)NC(=O)[C@H](CCC(=O)O)NC(=O)[C@H](CCC(=O)O)NC(=O)[C@@H](N)[C@@H](C)O)C(C)C)[C@@H](C)O)[C@@H](C)O)C(=O)O` [CFTRT^-3], the Ki on CALP (CAL PDZ domain) [1] was determined as 18 ± 5.5 µM; on N1P1 (NHERF1 PDZ1) it was 0.76 ± 0.51 µM; on N1P2 (NHERF1 PDZ2) it was 4.6 ± 1.6 µM; at N2P1 (NHERF2 PDZ1), 1.3 ± 0.4 µM; at N2P2 (NHERF2 PDZ2), 450 ± 250 nM.
For N2P1 PDZ1 (from UniProt Q15599), the Ki with iCAL36 was over 1 mM.
As for N1P1 PDZ1 (from UniProt O14745), the Ki in the experiment with iCAL36 is over 1 mM.
Turning to WQVTRV [kCAL01], the “CALP affinity in words” value at CALP (CAL PDZ domain) [2] is “highest affinity observed to date for a hexameric sequence”.
On to ANSRVQDTRL [iCAL36VQDTRL], for which the Ki at N1P1 (NHERF1 PDZ1) was 2.5 ± 0.3 µM; at N1P2 (NHERF1 PDZ2), 6.5 ± 2.3 µM; on N2P1 (NHERF2 PDZ1) it was 3.8 ± 1.4 µM; on N2P2 (NHERF2 PDZ2), 940 ± 420 nM.
For N2P2 PDZ2 (from UniProt Q15599), the Ki with iCAL36 was over 1 mM.

B1: N2P2 PDZ2 (protein)
chain: LRPRLCHLRKGPQGYGFNLHSDKSRPGQYIRSVDPGSPAARSGLRAQDRLIEVNGQNVEGLRHAEVVASIKAREDEARLLVVDPETD
For the molecule B1, the values for the Ki with iCAL36QDTRL, in the experiment with iCAL36TRL and with iCAL36Q-4 were 1100 nM, 16.5 µM and 450 µM, respectively.

B2: N1P1 PDZ1 (protein)
chain: LPRLCCLEKGPNGYGFHLHGEKGKLGQYIRLVEPGSPAEKAGLLAGDRLVEVNGENVEKETHQQVVSRIRAALNAVRLLVVDPETDE
Take B2: binding with F*-CFTR6 was characterised by a dissociation constant (Kd) of 370 nM. For the same molecule, the Ki with iCAL36TRL is 8 µM; in the experiment with iCAL36Q-4, 280 µM; in the experiment with iCAL36VQD-3, over 1 mM.

B3: N2P1 PDZ1 (protein)
chain: RPRLCRLVRGEQGYGFHLHGEKGRRGQFIRRVEPGSPAEAAALRAGDRLVEVNGVNVEGETHHQVVQRIKAVEGQTRLLVVDQETD
On to B3, for which the Ki with iCAL36QDTRL was 3100 nM; with iCAL36TRL, 8.7 µM; in the experiment with iCAL36Q-4 it was 300 µM; with iCAL36VQD-3 it was over 1 mM.

B4: N1P2 PDZ2 (protein)
chain: RPRLCTMKKGPSGYGFNLHSDKSKPGQFIRSVDPDSPAEASGLRAQDRIVEVNGVCMEGKQHGDVVSAIRAGGDETKLLVVDRETDE
For B4, the Ki in the experiment with iCAL36TRL is 110 µM; with iCAL36Q-4, over 1000 µM; with iCAL36VQD-3, over 1 mM.

Source of the values: PMC3947174 (Structure (London, England : 1993), 2013).
